Assay results published in patent publication US7396837B2, “Antitumoral analogs of lamellarins” (Pharma Mar, S.A.U., priority 2002, dated 2008).
Like-named read-outs stand apart in the source and are kept apart here.

Columns and labels:
Type in all cases: cell-based
SK-BR-3 = assay: SRB colorimetric cell growth inhibition assay, SK-BR-3; details: Homo sapiens, SK-BR-3, SK-BR-3; for GI50: GI=growth inhibition, read-out: GI50 SK-BR-3; for CC50: LC=cell killing (cytotoxic effect), read-out: LC50 SK-BR-3; for IC (TGI): TGI=total growth inhibition (cytostatic effect), read-out: TGI SK-BR-3
Procedure, shortened: (§1)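 Cells are kept under uninterrupted exposure to compound. Staining with sulforhodamine B then measures cell growth and viability. Triplicate data give mean ± SD, from which growth inhibition, total growth inhibition and lethal concentration values follow.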

IGROV = assay: SRB colorimetric cell growth inhibition assay, IGROV; details: Homo sapiens, IGROV; for GI50: GI=growth inhibition, read-out: GI50 IGROV; for CC50: LC=cell killing (cytotoxic effect), read-out: LC50 IGROV; for IC (TGI): TGI=total growth inhibition (cytostatic effect), read-out: TGI IGROV
Procedure, shortened: as §1

LNCaP = assay: SRB colorimetric cell growth inhibition assay, LNCaP; details: Homo sapiens, LNCaP, LN-caP; for GI50: GI=growth inhibition, read-out: GI50 LN-caP; for CC50: LC=cell killing (cytotoxic effect), read-out: LC50 LN-caP; for IC (TGI): TGI=total growth inhibition (cytostatic effect), read-out: TGI LN-caP
Procedure, shortened: as §1

PANC-1 = assay: SRB colorimetric cell growth inhibition assay, PANC-1; details: Homo sapiens, PANC-1, PANC-1; for GI50: GI=growth inhibition, read-out: GI50 PANC-1; for CC50: read-out: LC50 PANC-1; for IC (TGI): read-out: TGI PANC-1
Procedure, shortened: as §1

LoVo = assay: SRB colorimetric cell growth inhibition assay, LoVo; details: Homo sapiens, LoVo; for GI50: GI=growth inhibition, read-out: GI50 LOVO; for CC50: read-out: LC50 LOVO; for IC (TGI): read-out: TGI LOVO
Procedure, shortened: as §1

IGROV-ET = assay: SRB colorimetric cell growth inhibition assay, IGROV-ET (ET-743 resistant); details: Homo sapiens, IGROV-ET; for GI50: GI=growth inhibition, read-out: GI50 IGROV-ET; for CC50: LC=cell killing (cytotoxic effect), read-out: LC50 IGROV-ET; for IC (TGI): TGI=total growth inhibition (cytostatic effect), read-out: TGI IGROV-ET
Procedure, shortened: as §1

SK-MEL-28 = assay: SRB colorimetric cell growth inhibition assay, SK-MEL-28; details: Homo sapiens, SK-MEL-28, MEL-28; for GI50: GI=growth inhibition, read-out: GI50 MEL-28; for CC50: LC=cell killing (cytotoxic effect), read-out: LC50 MEL-28; for IC (TGI): TGI=total growth inhibition (cytostatic effect), read-out: TGI MEL-28
Procedure, shortened: as §1

LoVo-Dox = assay: SRB colorimetric cell growth inhibition assay, LoVo-Dox (MDR); details: Homo sapiens, LOVO-DOX; for GI50: GI=growth inhibition, read-out: GI50 LOVO-DOX; for CC50: read-out: LC50 LOVO-DOX; for IC (TGI): read-out: TGI LOVO-DOX
Procedure, shortened: as §1

HT-29 = assay: SRB colorimetric cell growth inhibition assay, HT-29; details: Homo sapiens, HT-29, HT-29; for GI50: GI=growth inhibition, read-out: GI50 HT-29; for CC50: read-out: LC50 HT-29; for IC (TGI): read-out: TGI HT-29
Procedure, shortened: as §1

A-549 = assay: SRB colorimetric cell growth inhibition assay, A-549; details: Homo sapiens, A549, A-549; for GI50: GI=growth inhibition, read-out: GI50 A-549; for CC50: read-out: LC50 A-549; for IC (TGI): read-out: TGI A-549
Procedure, shortened: as §1

DU-145 = assay: SRB colorimetric cell growth inhibition assay, DU-145; details: Homo sapiens, DU-145, DU-145; for GI50: GI=growth inhibition, read-out: GI50 DU-145; for CC50: LC=cell killing (cytotoxic effect), read-out: LC50 DU-145; for IC (TGI): TGI=total growth inhibition (cytostatic effect), read-out: TGI DU-145
Procedure, shortened: as §1

SKOV-3 = assay: SRB colorimetric cell growth inhibition assay, SKOV-3; details: Homo sapiens; for GI50: SK-OV-3, SKOV-3, GI=growth inhibition, read-out: GI50 SKOV-3; for CC50 / IC (TGI): SK-OV-3, SKOV-3; for CC50: LC=cell killing (cytotoxic effect), read-out: LC50 SKOV-3; for IC (TGI): TGI=total growth inhibition (cytostatic effect), read-out: TGI SKOV-3
Procedure, shortened: (§2)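 SRB colorimetric readout of cell growth/viability in 96-well format. Means ± SD from triplicate wells; GI (growth inhibition), TGI (total growth inhibition, cytostatic) and LC (cell killing, cytotoxic) parameters derived.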

K-562 = assay: SRB colorimetric cell growth inhibition assay, K-562; details: Homo sapiens, K562, K-562; for GI50: GI=growth inhibition, read-out: GI50 K-562; for CC50: read-out: LC50 K-562; for IC (TGI): read-out: TGI K-562
Procedure, shortened: as §1

[1] = SRB colorimetric cell growth inhibition assay, H-MEC-1; details: human, H-MEC-1 cells, H-MEC-1; LC=cell killing (cytotoxic effect); read-out: LC50 H-MEC-1
Procedure, shortened: as §2

H-MEC-1 = assay: as above; details: Homo sapiens, HMEC-1, H-MEC-1; for GI50: GI=growth inhibition; for IC (TGI): TGI=total growth inhibition (cytostatic effect), read-out: TGI H-MEC-1
Procedure, shortened: as §2

[2] = cell killing (cytotoxic effect)
[3] = total growth inhibition (cytostatic effect)
[4] = LC=cell killing (cytotoxic effect)
[5] = TGI=total growth inhibition (cytostatic effect)

Structure (SMILES): COc1cc2ccn3c(c(-c4ccc(OS(=O)(=O)C(F)(F)F)c(OC)c4)c4c5cc(OC)c(OS(=O)(=O)C(F)(F)F)cc5oc(=O)c43)c2cc1OC [Compound 126]
- GI50 (SK-BR-3): 2.11 µM
- CC50 (SK-BR-3): 1.29 µM
- IC (TGI) (SK-BR-3): 5.36 µM
- GI50 (IGROV): 2.26 µM
- CC50 (IGROV): 12.6 µM
- IC (TGI) (IGROV): 5.32 µM
- GI50 (LNCaP): 1.25 µM
- CC50 (LNCaP): 6.04 µM
- IC (TGI) (LNCaP): 2.76 µM
- GI50 (PANC-1): 2.19 µM
- CC50 (PANC-1; [2]): 12.9 µM
- IC (TGI) (PANC-1; [3]): 6.57 µM
- GI50 (LoVo): 2.56 µM
- CC50 (LoVo; [2]): 12.6 µM
- IC (TGI) (LoVo; [3]): 5.68 µM
- GI50 (IGROV-ET): 3.88 µM
- CC50 (IGROV-ET): 12.9 µM
- IC (TGI) (IGROV-ET): 7.87 µM
- GI50 (SK-MEL-28): 2.93 µM
- CC50 (SK-MEL-28): 9.48 µM
- IC (TGI) (SK-MEL-28): 5.27 µM
- GI50 (LoVo-Dox): 12.9 µM
- CC50 (LoVo-Dox; [2]): 12.9 µM
- IC (TGI) (LoVo-Dox; [3]): 12.9 µM
- GI50 (HT-29): 3 µM
- CC50 (HT-29; [2]): 12.9 µM
- IC (TGI) (HT-29; [3]): 9.22 µM
- GI50 (A-549): 2.98 µM
- CC50 (A-549; [2]): 2.25 µM
- IC (TGI) (A-549; [3]): 5.74 µM
- GI50 (DU-145): 2.53 µM
- CC50 (DU-145): 12.9 µM
- IC (TGI) (DU-145): 6.49 µM
- GI50 (SKOV-3): 3.48 µM
- CC50 (SKOV-3): 12.9 µM
- IC (TGI) (SKOV-3): 6.98 µM
- GI50 (K-562): 2.15 µM
- CC50 (K-562; [2]): 8.69 µM
- IC (TGI) (K-562; [3]): 4.32 µM
- CC50 [1]: 6.46 µM
- GI50 (H-MEC-1): 0.746 µM
- IC (TGI) (H-MEC-1): 2.25 µM

Structure (SMILES): COc1cc2c(cc1OC)-c1c(-c3ccc(OS(C)(=O)=O)c(OC)c3)c3c4cc(OC)c(OS(C)(=O)=O)cc4oc(=O)c3n1CC2 [Compound 92]
- GI50 (SK-BR-3): 4.35 µM
- CC50 (SK-BR-3): 14.9 µM
- IC (TGI) (SK-BR-3): 11.6 µM
- GI50 (IGROV): 3.13 µM
- CC50 (IGROV): 14.1 µM
- IC (TGI) (IGROV): 6.64 µM
- GI50 (LNCaP): 0.167 µM
- CC50 (LNCaP): 5.09 µM
- IC (TGI) (LNCaP): 0.71 µM
- GI50 (PANC-1): 5.42 µM
- CC50 (PANC-1; [4]): 14.9 µM
- IC (TGI) (PANC-1; [5]): 14.9 µM
- GI50 (LoVo): 7.52 µM
- CC50 (LoVo; [4]): 14.9 µM
- IC (TGI) (LoVo; [5]): 14.9 µM
- GI50 (IGROV-ET): 6.85 µM
- CC50 (IGROV-ET): 14.9 µM
- IC (TGI) (IGROV-ET): 14.9 µM
- GI50 (SK-MEL-28): 4.75 µM
- CC50 (SK-MEL-28): 14.9 µM
- IC (TGI) (SK-MEL-28): 10.1 µM
- GI50 (LoVo-Dox): 2.14 µM
- CC50 (LoVo-Dox; [4]): 14.9 µM
- IC (TGI) (LoVo-Dox; [5]): 5.96 µM
- GI50 (HT-29): 14.9 µM
- CC50 (HT-29; [4]): 14.9 µM
- IC (TGI) (HT-29; [5]): 14.9 µM
- GI50 (A-549): 14.9 µM
- CC50 (A-549; [4]): 14.9 µM
- IC (TGI) (A-549; [5]): 14.9 µM
- GI50 (DU-145): 14.9 µM
- CC50 (DU-145): 14.9 µM
- IC (TGI) (DU-145): 14.9 µM
- GI50 (SKOV-3): 7.61 µM
- CC50 (SKOV-3): 14.9 µM
- IC (TGI) (SKOV-3): 14.9 µM
- GI50 (K-562): 2.23 µM
- CC50 (K-562; [4]): 14.9 µM
- IC (TGI) (K-562; [5]): 13.8 µM
- CC50 [1]: 14.9 µM
- GI50 (H-MEC-1): 14.2 µM
- IC (TGI) (H-MEC-1): 14.9 µM

Structure (SMILES): COc1cc2c(cc1OC)-c1c(-c3ccc(OC(=O)[C@H](C)N)c(OC)c3)c3c4cc(OC)c(OC(=O)[C@H](C)N)cc4oc(=O)c3n1CC2 [Compound 63]
- GI50 (SK-BR-3): 1.57 µM
- CC50 (SK-BR-3): 14.7 µM
- IC (TGI) (SK-BR-3): 4.8 µM
- GI50 (IGROV): 0.975 µM
- CC50 (IGROV): 14.6 µM
- IC (TGI) (IGROV): 3.86 µM
- GI50 (LNCaP): 1.13 µM
- CC50 (LNCaP): 9.61 µM
- IC (TGI) (LNCaP): 3.47 µM
- GI50 (PANC-1): 1.93 µM
- CC50 (PANC-1; [4]): 13.2 µM
- IC (TGI) (PANC-1; [5]): 5.05 µM
- GI50 (LoVo): 1.46 µM
- CC50 (LoVo; [4]): 9.11 µM
- IC (TGI) (LoVo; [5]): 3.68 µM
- GI50 (IGROV-ET): 0.64 µM
- CC50 (IGROV-ET): 15.2 µM
- IC (TGI) (IGROV-ET): 2.86 µM
- GI50 (SK-MEL-28): 2.34 µM
- CC50 (SK-MEL-28): 10.1 µM
- IC (TGI) (SK-MEL-28): 4.87 µM
- GI50 (LoVo-Dox): 0.909 µM
- CC50 (LoVo-Dox; [4]): 9.85 µM
- IC (TGI) (LoVo-Dox; [5]): 2.95 µM
- GI50 (HT-29): 2.92 µM
- CC50 (HT-29; [4]): 11.1 µM
- IC (TGI) (HT-29; [5]): 5.7 µM
- GI50 (A-549): 2.84 µM
- CC50 (A-549; [4]): 10.9 µM
- IC (TGI) (A-549; [5]): 5.57 µM
- GI50 (DU-145): 2.2 µM
- CC50 (DU-145): 11.7 µM
- IC (TGI) (DU-145): 5.08 µM
- GI50 (SKOV-3): 3.06 µM
- CC50 (SKOV-3): 11.1 µM
- IC (TGI) (SKOV-3): 5.84 µM
- GI50 (K-562): 2.9 µM
- CC50 (K-562; [4]): 15.2 µM
- IC (TGI) (K-562; [5]): 6.75 µM
- CC50 [1]: 10.1 µM
- GI50 (H-MEC-1): 2.72 µM
- IC (TGI) (H-MEC-1): 5.25 µM
